From patent publication US12616674B2, “Anti-fibrotic NEU3 inhibitor compounds and methods of use” (The Texas A&M University System, priority 2019, dated 2026)

Target: T1, recombinant mouse NEU3 (Mus musculus, UniProt Q9JMH7)
T1 construct: c-Myc; host or cells: HEK 293 Freestyle cells
T1 sequence (Q9JMH7 1-418): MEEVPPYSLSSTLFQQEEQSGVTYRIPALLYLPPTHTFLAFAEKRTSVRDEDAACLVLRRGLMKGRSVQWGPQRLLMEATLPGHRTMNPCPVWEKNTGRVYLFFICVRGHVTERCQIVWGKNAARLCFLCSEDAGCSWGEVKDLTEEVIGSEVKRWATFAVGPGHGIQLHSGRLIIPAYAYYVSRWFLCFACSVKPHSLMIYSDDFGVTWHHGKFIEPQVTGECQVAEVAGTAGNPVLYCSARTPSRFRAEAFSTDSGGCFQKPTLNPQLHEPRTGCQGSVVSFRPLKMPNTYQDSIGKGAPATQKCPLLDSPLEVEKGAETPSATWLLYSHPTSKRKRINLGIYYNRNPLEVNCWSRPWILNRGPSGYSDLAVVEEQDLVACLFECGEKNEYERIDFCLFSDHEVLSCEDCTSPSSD
Assay: Recombinant mouse NEU3-catalyzed TGF-β1 activation (TGF-β1 ELISA)
Type: biochemical
Conditions: recombinant mouse NEU3, FIGS. 7A-B
Method: To determine if selected NEU3 inhibitors could be used in mice to inhibit mouse NEU3, we made recombinant mouse NEU3 in HEK 293 Freestyle human embryonic kidney cells. HEK 293 Freestyle cells (Life Technologies, Grand Island, NY) were cultured in FreeStyle 293 media (12338-018, Life Technologies, Grand Island, NY). 1×10^5 cells were mixed with 2 μg of 100 μg/ml of murine Neu3 expression clone (MR223297, Origene), in 100 μl PBS (GE Lifesciences), and were transfected by electroporation using a 4D-Nucelofactor System (Lonza) following the manufacturer's protocol. The transfected cells were kept at room temperature for 15 minutes for recovery, after which the cells were cultured in 25 ml Freestyle 293 media with 250 μg/ml of G418 antibiotic (345812, Calbiochem EMD Chemicals Inc. San Diego, CA) to select for transfected cells, in a 200 ml cell culture flask (431464U, Corning) at 37° C. humidified with 5% CO2. After 10 days, the cells were isolated, lysed, and c-Myc tagged recombinant mouse NEU3 protein was purified using a Myc-Trap A kit (ytak-20, Chromotek, Hauppauge, NY) following the manufacturer's protocol. The eluted protein was stored in 50 μl of 10% glycerol, 100 mM glycine, 25 mM Tris-HCl pH 7.3.
To determine if NEU3 inhibitors would be effective in mice, NEU3 inhibitors were tested against recombinant mouse NEU3. […]

Compound | inhibition of NEU3's activation of TGF-β1
CC(=O)c1ccccn1 [Compound 5, 2-acetylpyridine] | inhibited
COC(=O)c1ccccn1 [Compound 6, methyl picolinate] | inhibited
